US7655767B2, “Use of thiazolyl-pyridinium based dyes in optical layers for optical data recording” (priority 2004, dated 2010)

Tests used:
[1] = Solubility in 2,2,3,3-tetrafluoropropanol; settings: 20 °C, organic solvent or mixture
[2] = Thermal decomposition (TGA / DSC); type: physicochemical
From the text: The optical and thermal properties of the thiazolyl-pyridinium based dye compounds were studied. The dyes show high absorption at the desired wavelengths. In addition, the shape of the absorption spectra, that still remains critical to the disc reflectivity and formation of clean mark edges, are composed of one major band, comprised in a range of from 350 to 500 nm, preferably of from 350 to 400 nm.
Sharp threshold of thermal decomposition within the required temperature range characterizes the new thiazolylpyridinium based dyes which are assumed to be desirable for the application in optical layers for optical data recording.

| Compound | solubility [1] [mg/mL] | TGA (decomp.) [2] [°C] |
| --- | --- | --- |
| C[n+]1ccc(-c2nc(C(C)(C)C)cs2)cc1.[I-] [Example 8, 1-methyl-4-[4-tert-butyl-thiazolyl-(2)]-pyridiniumiodide] | > 5e-05 | – |
| C[n+]1ccc(-c2nc3ccc(Cl)cc3s2)cc1.[I-] [Example 12, 1-methyl-4-(6-chlor-benzothiazol-2-yl)pyridinium iodide] | > 50 | 244 |
| COc1ccc(-c2csc(-c3cc[n+](C)cc3)n2)cc1.[I-] [Example 10, 4-[4-(4-methoxy-phenyl)-thiazol-2-yl]-1-methyl-pyridinium iodide] | > 50 | 250 |
| COc1ccc(-c2csc(-c3cc[n+](C(C)C)cc3)n2)cc1 [Example 11] | > 50 | 240 |
| C[n+]1ccc(-c2nc(-c3ccccc3)cs2)cc1.[I-] [Example 9, 1-methyl-4-[4-phenyl-thiazolyl-(2)]-pyridinium iodide] | > 30 | 260 |
| CC(C)[n+]1ccc(-c2nc(-c3ccccc3)cs2)cc1.[I-] [Example 7, 1-isopropyl-4-[4-phenyl-thiazolyl-(2)]-pyridiniumiodide] | > 50 | 270 |
